System: Penicillium Chrysogenom
Test: Modified Agar plate method, fungicidal activity against Penicillium spores (number of colonies)
Format: cell-based
Details: Treatment II: 1 ml solution of Captan in water at 200 ppm

In the case of `O=C1C2CC=CCC2C(=O)N1SC(Cl)(Cl)Cl` (stereo not shown) [CAPTAN, Captan], the “inhibition (observation of number of colonies)” value was “total inhibition”.

Reference: US4087534A, “N-haloalkylmio urazole pesticides” (priority 1974, dated 1978)
